Source: publication PMC12064818, “A general assay platform to study protein pharmacology using ligand-dependent structural dynamics” (Nature Communications, 2025)

Molecular target: T1, FLuc-C-HiBiT (Photinus pyralis, UniProt P08659)
T1 construct: firefly luciferase with C-terminal HiBiT tag, E. coli expressed
Assay: biochemical
Conditions: enzyme activity, 10 uM ATP; read-out: IC50 or SDR50 (mM) / FLuc E

T1 sequence (P08659 whole entry, looked up): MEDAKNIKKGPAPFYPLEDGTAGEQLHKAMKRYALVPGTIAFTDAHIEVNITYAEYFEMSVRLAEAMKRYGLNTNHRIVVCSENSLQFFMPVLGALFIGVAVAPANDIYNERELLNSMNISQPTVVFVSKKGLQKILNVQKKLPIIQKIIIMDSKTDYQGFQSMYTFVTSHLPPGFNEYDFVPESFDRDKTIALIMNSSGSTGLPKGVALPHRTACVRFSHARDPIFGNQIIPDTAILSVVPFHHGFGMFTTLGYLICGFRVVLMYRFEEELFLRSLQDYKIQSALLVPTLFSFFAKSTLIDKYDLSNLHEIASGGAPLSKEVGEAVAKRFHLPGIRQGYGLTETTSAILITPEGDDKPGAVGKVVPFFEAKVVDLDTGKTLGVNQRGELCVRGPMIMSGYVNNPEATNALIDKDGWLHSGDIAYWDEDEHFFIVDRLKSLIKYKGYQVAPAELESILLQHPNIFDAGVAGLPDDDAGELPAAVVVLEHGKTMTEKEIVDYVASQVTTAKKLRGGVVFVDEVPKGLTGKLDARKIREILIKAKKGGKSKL

IC50 [µM] | Compound
14.3 | O=C([C@@H]1C[C@@H](O)[C@H](O)[C@@H]2NC(=S)N(c3ccc4c(c3)OCO4)[C@@H]21)N1CCOCC1 [NCGC00397934-01]
14 | COc1ccc2nc(-c3ccc(N4CCN(C(=O)OC(C)(C)C)CC4)cc3)sc2c1 [NCGC00167609-02]
12.4 | CCN(CC1CCOCC1)C(=O)c1cccnc1SC/C=C/c1ccccc1 [NCGC00433298-01]
6.4 | COc1ccc(-n2nc(C)c([C@@H]3C=C[C@@H](NC(=O)NCc4ccccc4)C3)c2C)cc1 [NCGC00421411-01]
0.7 | CC(=O)c1nn(-c2ccc(OC(F)(F)F)cc2)nc1Nc1ccccc1 [NCGC00116600-01]
> 30 | COc1ccc(-c2nc3ccccc3s2)cc1NC(=O)COc1cccc(C)c1 [NCGC00102101-01]
11.4 | O=C1c2cnc(-c3ccc(CO)cc3)nc2OCCN1CC1CC1 [NCGC00413563-01]
> 30 | CCn1cc(-c2ccc(C)cc2)cc1C(=O)O [NCGC00432661-01]
3.51 | Brc1ccccc1-c1nc(-c2ccccc2)no1 [NCGC00075547-01]
> 30 | Cc1c(CN2CCOc3c(O)cc(-c4nc5ccccc5s4)cc3C2)cnn1C [NCGC00240749-01]
14.3 | c1ccc(Nc2cc3c(cn2)CN(Cc2ccsc2)CCN3)cc1 [NCGC00411091-01]
11.1 | Cc1ccc(-c2nnc(SCc3ccccc3C)o2)cc1 [NCGC00103155-01]
1.24 | O=C(Nc1cnc(-c2ccc(Cl)cc2)nc1)C1CCC1 [NCGC00432903-01]
9.89 | Cc1nonc1COc1ccc(C(=O)Nc2cccc(-c3nc4ccccc4s3)c2)cc1 [NCGC00688799-01]
18 | COc1ccc(-c2cnc(Nc3cccc(N[S+](C)(=O)[O-])c3)c3c2CCO3)cn1 [NCGC00412697-01]
0.00248 | COc1ccc(-c2nc(-c3cccc(C(=O)O)c3)no2)cc1 [NCGC00168767-01]
9.89 | CCN1CCN(c2ccc(-c3cccc(N)c3)nn2)CC1 [NCGC00432707-01]

IC50 [µM] | Compound
7 | CN(C)c1cccc(C(=O)NC2CCN(c3cc(-c4ccccc4)n[nH]3)C2)c1 (stereo not shown) [NCGC00437846-01]
0.57 | C[C@@H]1C(=O)O[C@H]2[C@H]1CC[C@@]1(C)Cc3sc(NC(=O)c4ccncc4)nc3[C@@H](C)[C@H]21 [NCGC00401418-01]
0.881 | COc1ccc(C(=O)Nc2noc3ccccc23)cc1 [NCGC00115156-01]
> 30 | COc1c(C)cccc1C(=O)Nc1ccc(-c2nc3ccccc3s2)c(Cl)c1 [NCGC00102004-01]
12.4 | O=C(CCCc1ccccc1)N1CCC2(CC1)CC(O)CCO2 (stereo not shown) [NCGC00452928-01]
11.1 | CCOc1ccc(-n2nc(CO)c(C(=O)NCc3ccccn3)n2)cc1 [NCGC00117131-01]
0.0157 | O=C(O)c1cccc(-c2noc(-c3cccc(C(F)(F)F)c3)n2)c1 [NCGC00168769-01]
6.24 | Fc1ccc(Nc2nc(-c3ccccc3)no2)cc1 [NCGC00422295-01]
11.1 | Cc1cnc(CCNC(=O)Nc2ccc3c(c2)OCCO3)n1C1CC1 [NCGC00469576-01]
11.1 | Cc1ccc(NC(=O)N2CCC(CCNC(=O)C3CC3)CC2)cc1F [NCGC00425057-01]
14.3 | CSCC(=O)N[C@H]1CCN2C(=O)c3cc(/C=C/c4ccccc4)ccc3NC(=O)[C@H]12 [NCGC00421159-01]
11.1 | Cc1ccc(C2Cn3nnc(C(=O)N4CCC(C(=O)NCc5ccncc5)CC4)c3CO2)cc1 (stereo not shown) [NCGC00449555-01]
0.989 | Fc1ccc(-c2cn3cc(Cc4ccccc4Cl)sc3n2)cc1 [NCGC00102130-01]
18 | COc1cccc(CN2CCNc3cc(-c4ccnc(C)c4)ncc3C2)c1 [NCGC00411029-01]
0.989 | Cc1ccccc1-c1noc(-c2ccc(NC(C)c3cnn(C)c3)nc2)n1 (stereo not shown) [NCGC00428942-01]
1.11 | CC1CCCCN1c1ncnc2c1cnn2-c1ccccc1 (stereo not shown) [NCGC00605414-01]
6.24 | COc1ccc(C(=O)NC2CCCN(c3cc(-c4ccc(Cl)cc4)n[nH]3)C2)cc1OC (stereo not shown) [NCGC00437414-01]
